# Patent publication US20100266567A1, “USE OF URATE OXIDASE FOR THE TREATMENT OR PROPHYLAXIS OF DISORDERS OR INDIRECT SEQUELAE OF THE HEART CAUSED BY ISCHEMIC OR REPERFUSION EVENTS” (sanofi-aventis, priority 2007, published 2010)
# B1: rasburicase (protein, listed as Aspergillus flavus)
# chain: SAVKAARYGKDNVRVYKVHKDEKTGVQTVYEMTVCVLLEGEIETSYTKADNSVIVATDSIKNTIYITAKQNPVTPPELFGSILGTHFIEKYNHIHAAHVNIVCHRWTRMDIDGKPHPHSFIRDSEEKRNVQVDVVEGKGIDIKSSLSGLTVLKSTNSQFWGFLRDEYTTLKETWDRILSTDVDATWQWKNFSGLQEVRSHVPKFDATWATAREVTLKTFAEDNSASVQATMYKMAEQILARQQLIETVEYSLPNKHYFEIDLSWHKGLQNTGKNAEVFAPQSDPNGLIKCTVGRSSLKSKL
# modifications: homotetramer
# notes: recombinant urate oxidase enzyme from genetically modified Saccharomyces cerevisiae with Aspergillus flavus cDNA
# Tests used:
# isolated rat hearts = assay: Isolated working rat heart: coronary flow and contractility
# Source text: As biological materials the isolated hearts of male Wistar rats were used which were purchased from our Laboratory Animal Science and Welfare (LASW). The heart function (coronary flow and contractility) was investigated on the “Isolated Working Heart” model as previously described (Itter G et al., Laboratory Animals (2005) 39; 178-193). The hearts were first perfused according to Langendorff's method with an oxygenated (95% O2, 5% CO2) noncirculating Krebs-Henseleit solution of the following compositions (mmol/L): NaCl, 118; KCl, 4.7; CaCl2, 2.5; MgSO4, 1.6; NaHCO3, 24.9; KH2PO4, 1.2; glucose, 5.5; Na-pyruvate, 2.0. A catheter placed into the pulmonary artery drained the coronary effluent perfusate that was collected for determination of coronary flow and venous PO2 measurements. The left atrium was cannulated by an incision of the left auricle. After a 15-minute equilibration period at a fixed perfusion pressure of 60 mmHg, the heart was switched into the working mode at a fixed filling pressure of 11 mmHg. Coronary flow (CF) and pressure signals (dP/dtmax) were sampled at 500 Hz, averaged every 2 seconds.
# High rasburicase concentrations were tested in combination with different uric acid concentrations on isolated working rat hearts for their possible adverse cardiac effects caused by the generated hydrogenperoxide (H2O2).
# [1] = test system: isolated rat hearts with global ischemia and reperfusion; assay: Isolated working rat heart with global ischemia and reperfusion: coronary flow and contractility
# Source text: Effects on Coronary Flow and Contractility of the Heart with Global Ischemia and Reperfusion: […]
# [2] = UA 15 mg/L (Rasb 50 μg/mL where present), 1 min before ischemia
# [3] = UA 15 mg/L (Rasb 50 μg/mL where present), 5 min before ischemia
# [4] = UA 15 mg/L (Rasb 50 μg/mL where present), Global Ischemia
# [5] = UA 15 mg/L (Rasb 50 μg/mL where present), Reperf. 5 min after Ischemia
# [6] = UA 15 mg/L (Rasb 50 μg/mL where present), Reperf. 10 min after Ischemia
# [7] = UA 15 mg/L (Rasb 50 μg/mL where present), Reperf. 15 min after Ischemia
# [8] = UA 30 mg/L (Rasb 50 μg/mL where present), 1 min before ischemia, Table 5
# [9] = UA 30 mg/L (Rasb 50 μg/mL where present), 5 min before ischemia, Table 5
# [10] = UA 30 mg/L (Rasb 50 μg/mL where present), Global Ischemia, Table 5
# [11] = UA 30 mg/L (Rasb 50 μg/mL where present), Reperf. 5 min after Ischemia, Table 5
# [12] = UA 30 mg/L (Rasb 50 μg/mL where present), Reperf. 10 min after Ischemia, Table 5
# [13] = UA 30 mg/L (Rasb 50 μg/mL where present), Reperf. 15 min after Ischemia, Table 5
# [14] = addition of ascorbic acid 1 mM to Rasb 50 μg/mL + UA 30 mg/L
molecule,measurement,setting,value
"OO [H2O2, hydrogenperoxide]",contractility (dP/dtmax),"isolated rat hearts; H2O2 10 μM, n = 4",4774 ± 185 mmHg/s
same,coronary flow (CF),"isolated rat hearts; H2O2 10 μM, n = 4",13.89 ± 0.55 mL/min
same,contractility (dP/dtmax),"isolated rat hearts; H2O2 30 μM, n = 4",4469 ± 167 mmHg/s
same,coronary flow (CF),"isolated rat hearts; H2O2 30 μM, n = 4",15.21 ± 1 mL/min
same,contractility (dP/dtmax),"isolated rat hearts; H2O2 100 μM, n = 4",4573 ± 268 mmHg/s
same,coronary flow (CF),"isolated rat hearts; H2O2 100 μM, n = 4",15.7 ± 1.3 mL/min
same,contractility (dP/dtmax),"isolated rat hearts; H2O2 200 μM, n = 4",1698 ± 69 mmHg/s
same,coronary flow (CF),"isolated rat hearts; H2O2 200 μM, n = 4",10.42 ± 0.3 mL/min
same,effect on coronary flow and contractility (in words),isolated rat hearts; concentrations higher than 100 μM H2O2,strongly reduced
"O=c1[nH]c(=O)c2[nH]c(=O)[nH]c2[nH]1 [Uric Acid, Uric acid]",contractility (dP/dtmax),[1]; [2],3608 ± 318 mmHg/s
same,coronary flow (CF),[1]; [2],12.82 ± 0.75 mL/min
same,contractility (dP/dtmax),[1]; [3],3600 ± 250 mmHg/s
same,coronary flow (CF),[1]; [3],13.28 ± 0.7 mL/min
same,contractility (dP/dtmax),[1]; [4],61 ± 1 mmHg/s
same,coronary flow (CF),[1]; [4],0.38 ± 0.06 mL/min
same,contractility (dP/dtmax),[1]; [5],1057 ± 496 mmHg/s
same,coronary flow (CF),[1]; [5],4.47 ± 1.69 mL/min
same,contractility (dP/dtmax),[1]; [6],1284 ± 667 mmHg/s
same,coronary flow (CF),[1]; [6],4.71 ± 1.86 mL/min
same,contractility (dP/dtmax),[1]; [7],1403 ± 736 mmHg/s
same,coronary flow (CF),[1]; [7],4.73 ± 1.85 mL/min
same,contractility (dP/dtmax),[1]; [8],4017 ± 437 mmHg/s
same,coronary flow (CF),[1]; [8],13.11 ± 0.88 mL/min
same,contractility (dP/dtmax),[1]; [9],4020 ± 350 mmHg/s
same,coronary flow (CF),[1]; [9],13.33 ± 0.7 mL/min
same,contractility (dP/dtmax),[1]; [10],59 ± 2 mmHg/s
same,coronary flow (CF),[1]; [10],0.31 ± 0.02 mL/min
same,contractility (dP/dtmax),[1]; [11],2224 ± 418 mmHg/s
same,coronary flow (CF),[1]; [11],8.34 ± 1.88 mL/min
same,contractility (dP/dtmax),[1]; [12],2898 ± 314 mmHg/s
same,coronary flow (CF),[1]; [12],9.16 ± 1.29 mL/min
same,contractility (dP/dtmax),[1]; [13],3192 ± 273 mmHg/s
same,coronary flow (CF),[1]; [13],9.25 ± 0.63 mL/min
same,contractility (dP/dtmax),"isolated rat hearts; male, Wistar, rat, 6 mg/L",3867 ± 327 mmHg/s
same,coronary flow (CF),"isolated rat hearts; male, Wistar, rat, 6 mg/L",13.51 ± 1.02 mL/min
"O=C1O[C@H]([C@@H](O)CO)C(O)=C1O [ascorbic acid, Ascorbic acid]",contractility after ischemia/reperfusion (in words),[1]; [14],further improvement
same,coronary flow after ischemia/reperfusion (in words),[1]; [14],normalization
B1,heart function (in words),"[1]; in the presence of uric acid, present prior and during ischemia/reperfusion",even improved
same,cardiodynamics after ischemia (in words),[1]; ischemia/reperfusion experiments,even improved
same,recovery after ischemia/reperfusion (in words),[1]; rasburicase 50 μg/mL in combination with uric acid 15 or 30 mg/L,concentration-dependently improved
